Laboratory results taken from paper PMC4929166, “Pharmacological evaluation of synthetic cannabinoids identified as constituents of spice” (Forensic Toxicology, 2016).
Like-named read-outs stand apart in the source and are kept apart here.

Key:
CB2 receptor [1] = target: T1, CB2 receptor (Homo sapiens, UniProt P34972); assay: cAMP accumulation assay in CHO cells expressing CB2; assay type: cell-based; set-up: expressed in transfected cells; host or cells: CHO cells; settings: cAMP accumulation, forskolin 10 µM, normalized to CP55,940; for efficacy at CB2 receptor (in words): test concentration 1 µM or 10 µM
T1 sequence (P34972 whole entry): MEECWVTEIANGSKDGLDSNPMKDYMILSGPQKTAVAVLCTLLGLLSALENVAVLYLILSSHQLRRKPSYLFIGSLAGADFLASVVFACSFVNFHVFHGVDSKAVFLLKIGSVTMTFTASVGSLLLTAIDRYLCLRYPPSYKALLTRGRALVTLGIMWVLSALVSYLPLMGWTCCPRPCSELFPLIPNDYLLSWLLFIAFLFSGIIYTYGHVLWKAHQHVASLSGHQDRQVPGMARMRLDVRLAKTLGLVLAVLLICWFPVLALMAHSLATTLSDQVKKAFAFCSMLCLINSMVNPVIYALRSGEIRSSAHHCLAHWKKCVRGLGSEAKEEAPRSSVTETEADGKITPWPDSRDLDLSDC

human GPR18 = target: T2, human GPR18 (Homo sapiens, UniProt Q14330); assay: β-Arrestin recruitment assay (PathHunter) at GPR18; assay type: cell-based; settings: for Human GPR18 % activation: percent in brackets beside EC50 >10 µM; for Human GPR18 % inhibition: percent in brackets beside IC50
T2 construct: β-galactosidase enzyme fragment (PathHunter complementation tag)
T2 sequence (Q14330 1-331): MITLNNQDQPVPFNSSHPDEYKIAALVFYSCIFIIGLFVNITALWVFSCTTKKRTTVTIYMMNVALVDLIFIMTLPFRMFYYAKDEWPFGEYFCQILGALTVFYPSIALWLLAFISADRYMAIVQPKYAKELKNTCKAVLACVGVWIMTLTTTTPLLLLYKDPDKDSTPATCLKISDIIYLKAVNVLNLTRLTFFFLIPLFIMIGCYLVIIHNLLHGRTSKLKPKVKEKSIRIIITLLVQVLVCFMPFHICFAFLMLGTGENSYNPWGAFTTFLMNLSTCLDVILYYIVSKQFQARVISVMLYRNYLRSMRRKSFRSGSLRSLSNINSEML
Method: (§1) Recruitment of β-arrestin to the respective receptor was detected by using β-galactosidase enzyme fragment complementation technology (β-arrestin PathHunter™ assay, DiscoverX, Fremont, CA, USA) as previously described. Data were obtained from three independent experiments, performed in duplicates. Data were analyzed using Graph Pad Prism Version 4.02 (San Diego, CA, USA).

CB1 receptor [2] = target: T3, CB1 receptor (Homo sapiens, UniProt P21554); assay: biochemical; assay type: binding; set-up: expressed in transfected cells; host or cells: CHO cells (membrane preparation); settings: for CB1 selectivity Ki CB2/KiCB1: Table S1, selectivity index from Ki values; for Ki: versus 0.1 nM [3H]CP55,940, CHO cell membranes, mean ± SEM of three to five experiments, read-out: Ki ± SEM Human CB1
T3 sequence (P21554 whole entry): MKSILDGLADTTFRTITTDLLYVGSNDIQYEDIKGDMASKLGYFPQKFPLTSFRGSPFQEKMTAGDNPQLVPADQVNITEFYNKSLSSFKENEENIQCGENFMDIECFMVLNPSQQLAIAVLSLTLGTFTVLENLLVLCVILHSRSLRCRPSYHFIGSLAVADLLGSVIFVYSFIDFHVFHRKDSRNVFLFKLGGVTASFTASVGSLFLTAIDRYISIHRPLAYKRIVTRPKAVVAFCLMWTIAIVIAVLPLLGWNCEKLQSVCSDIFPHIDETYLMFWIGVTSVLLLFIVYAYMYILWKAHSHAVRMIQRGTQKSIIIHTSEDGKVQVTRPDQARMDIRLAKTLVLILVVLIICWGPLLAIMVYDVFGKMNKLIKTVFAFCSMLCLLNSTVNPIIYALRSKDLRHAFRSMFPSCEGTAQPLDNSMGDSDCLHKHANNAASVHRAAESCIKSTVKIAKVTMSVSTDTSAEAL

human GPR55 = target: T4, human GPR55 (Homo sapiens, UniProt Q9Y2T6); assay: β-Arrestin recruitment assay (PathHunter) at GPR55; assay type: cell-based; settings: for IC50: antagonist mode; for Human GPR55 % activation: percent in brackets beside EC50 >10 µM; for Human GPR55 % inhibition: percent in brackets beside IC50
T4 construct: β-galactosidase enzyme fragment (PathHunter complementation tag)
T4 sequence (Q9Y2T6 whole entry, the tested form may be a part): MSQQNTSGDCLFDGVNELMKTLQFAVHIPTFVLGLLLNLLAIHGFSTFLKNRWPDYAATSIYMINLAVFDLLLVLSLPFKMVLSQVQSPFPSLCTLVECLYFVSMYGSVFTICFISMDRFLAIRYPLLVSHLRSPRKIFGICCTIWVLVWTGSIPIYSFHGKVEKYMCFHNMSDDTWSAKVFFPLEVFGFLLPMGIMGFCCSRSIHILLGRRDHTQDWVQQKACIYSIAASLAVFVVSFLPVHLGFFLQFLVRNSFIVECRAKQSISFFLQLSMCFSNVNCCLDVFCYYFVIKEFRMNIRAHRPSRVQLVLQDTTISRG
Method: as §1

CB2 receptor [3] = target: T1, CB2 receptor; assay: biochemical; assay type: binding; set-up: expressed in transfected cells; host or cells: CHO cells (membrane preparation); settings: for Ki: versus 0.1 nM [3H]CP55,940, CHO cell membranes, mean ± SEM of three to five experiments, read-out: Ki ± SEM Human CB2
CB1 receptor [4] = target: T3, CB1 receptor; assay: cell-based; assay type: cell-based; set-up: expressed in transfected cells; host or cells: CHO cells; settings: cAMP accumulation, forskolin 10 µM; test concentration 1 µM or 10 µM; normalized to CP55,940
Human CB2 = settings: read-out: EC50 Human CB2 (literature, functional assay) (converted), cited from earlier work
Human CB1 = settings: read-out: EC50 Human CB1 (literature, functional assay) (converted), cited from earlier work
[5] = Human GPR55 IC50, β-arrestin assay
[6] = Table S1, selectivity index from Ki values

SMILES	EC50 (human GPR18) [nM]	IC50 (human GPR18) [nM]	Human GPR18 % activation (human GPR18; β-arrestin assay) [%]	Human GPR18 % inhibition (human GPR18; β-arrestin assay) [%]	CB1 selectivity Ki CB2/KiCB1 (CB1 receptor [2])	Ki (CB1 receptor [2]) [nM]	EC50 (human GPR55) [nM]	IC50 (human GPR55; [5]) [nM]	Human GPR55 % activation (human GPR55; β-arrestin assay) [%]	Human GPR55 % inhibition (human GPR55; β-arrestin assay) [%]	CB2 selectivity Ki CB1/KiCB2 (CB2 receptor [3]; [6])	Ki (CB2 receptor [3]) [nM]	efficacy at CB1 receptor (in words) (CB1 receptor [4])	EC50 (Human CB2; ref Banister et al. [28]) [nM]	EC50 (Human CB1; ref Banister et al. [28]) [nM]	other results
CCCCCc1cc(O)c2c(c1)OC(C)(C)[C@@H]1CCC(C)=C[C@@H]21 [Compound 1, Δ^9-tetrahydrocannabinol, reference compound]	–	–	–	–	–	–	–	–	–	–	–	–	–	–	–	activation of CB2 receptor compared to full agonist CP55,940 (CB2 receptor [1]): 60–70%
O=C(Nc1ccc2ccccc2c1)c1cn(CCCCCF)c2ccccc12 [Compound 7, 5F-NNEI-2-naphthyl-isomer]	> 10000	> 10000	9	5	1.0	235 ± 15	> 10000	> 10000	19	20	1.0	226 ± 24	lower efficacy than Δ^9-THC	–	–	fold decrease of affinity when naphthyl is linked in 2-position (CB1 receptor [2]; CB1, compared with 5F-NNEI (5)): about 100 fold; efficacy at CB2 receptor (in words) (CB2 receptor [1]): lower efficacy than Δ^9-THC; inhibition at 30 µM (CB2 receptor [3]; at 30 µM, read-out: Maximal inhibition of radioligand binding, human CB2): 80%
CCCCCn1nc(C(=O)Nc2cccc3ccccc23)c2ccccc21 [Compound 8, MN-18]	> 10000	> 10000	2	37	0.9	3.86 ± 0.9	> 10000	> 10000	27	35	1.1	3.47 ± 0.89	lower efficacy than Δ^9-THC	–	–	efficacy at CB2 receptor (in words) (CB2 receptor [1]): lower efficacy than Δ^9-THC
CCCCCn1cc(C(=O)NCc2ccccc2)c2ccccc21 [Compound 12, SDB-006]	> 10000	> 10000	−9	22	3.5	53 ± 1.1	> 10000	> 10000	−5	36	–	188 ± 38	–	19	134	–
O=C(NCc1ccccc1)c1cn(CCCCCF)c2ccccc12 [Compound 13, 5F-SDB-006]	> 10000	> 10000	13	−24	6.0	71.9 ± 13.5	> 10000	> 10000	−3	11	–	430 ± 73	–	123	50	–
CCCCCn1cc(C(=O)NC23CC4CC(CC(C4)C2)C3)c2ccccc21 [Compound 15, APICA]	> 10000	> 10000	8	44	–	6.52 ± 3.73	> 10000	4770 ± 1690	11	–	–	1.22 ± 0.14	–	29	128	CB2 selectivity Ki CB1/KiCB2 (CB2 receptor [3]): 5.3
O=C(NC12CC3CC(CC(C3)C1)C2)c1cn(CCCCCF)c2ccccc12 [Compound 16, STS-135 (5F-APICA)]	> 10000	> 10000	−2	30	–	2.51 ± 0.35	> 10000	3410 ± 470	1	–	3.2	0.794 ± 0.071	–	13	51	–
O=C(Oc1cccc2ccccc12)c1cn(CCCCCF)c2ccccc12 [Compound 19, NM-2201]	> 10000	> 10000	−8	32	2.2	0.332 ± 0.107	> 10000	> 10000	17	23	–	0.732 ± 0.174	higher efficacy than the full agonist CP55,940	–	–	–
CCCCCn1nc(C(=O)Oc2cccc3ccccc23)c2ccccc21 [Compound 22, SDB-005]	> 10000	> 10000	15	24	–	3.59 ± 0.89	> 10000	> 10000	8	23	1.4	2.61 ± 1.07	–	140	116	–
O=C(Oc1cccc2ccccc12)c1nn(CCCCCF)c2ccccc12 [Compound 23, 5F-SDB-005]	> 10000	> 10000	21	24	1.3	2.58 ± 1.09	> 10000	> 10000	21	47	–	3.41 ± 1.34	–	136	148	–
O=C(Oc1cccc2cccnc12)c1cn(CC2CCCCC2)c2ccccc12 [Compound 27, BB-22]	> 10000	> 10000	2	18	1.6	0.217 ± 0.056	> 10000	> 10000	9	34	–	0.338 ± 0.045	higher efficacy than the full agonist CP55,940	–	–	–
CCc1ccc(C(=O)c2cn(CCCCCF)c3ccccc23)c2ccccc12 [Compound 31, EAM-2201]	> 10000	> 10000	14	4	1.0	0.38 ± 0.111	> 10000	1860 ± 160	−24	–	1.0	0.371 ± 0.052	higher efficacy than the full agonist CP55,940	–	–	–
CCCCCn1cc(C(=O)C23CC4CC(CC(C4)C2)C3)c2ccccc21 [Compound 35, AB001]	> 10000	~10000	−12	62	–	33 ± 7.42	> 10000	~10000	−14	56	19.2	1.72 ± 0.15	–	–	–	EC50 (Human CB2; ref Banister et al. [46]): 45 nM; EC50 (Human CB1; ref Banister et al. [46]): 35 nM
CC1(C)C(C(=O)c2cn(CCCCCF)c3ccccc23)C1(C)C [Compound 38, XLR-11]	–	–	–	–	–	29.4 ± 11	–	–	–	–	48.4	0.608 ± 0.151	–	83	98	–
CN1CCCCC(Cn2cc(C(=O)C3C(C)(C)C3(C)C)c3ccccc32)C1 (stereo not drawn) [Compound 44, AB005-azepane-isomer]	–	–	11	−6	–	> 10000	–	–	21	18	47.2	212 ± 55	did not activate	–	–	EC50 (human GPR18; read-out: Human GPR18 EC50, β-arrestin assay, agonist mode): > 10000 nM; IC50 (human GPR18; read-out: Human GPR18 IC50, β-arrestin assay, antagonist mode): > 10000 nM; affinity for the CB1 receptor (in words) (CB1 receptor [2]; at concentrations up to 10 µM): no affinity; inhibition of radioligand binding at human CB1 (percent in brackets) (CB1 receptor [2]; printed in brackets beside Ki ~/>10,000 nM, concentration not given): 13%; EC50 (human GPR55; read-out: Human GPR55 EC50, β-arrestin assay, agonist mode): > 10000 nM; IC50 (human GPR55; read-out: Human GPR55 IC50, β-arrestin assay): > 10000 nM; efficacy at CB2 receptor (in words) (CB2 receptor [1]): did not activate
